{
  "source": "patent US20260167715A1",
  "about": "“PD-1+CD38HICD8+ KILLER T CELLS AND USES THEREOF” (GEORGETOWN UNIVERSITY, priority 2022, published 2026)",
  "key": {"T^frat cells [1]": {"tested_on": "T^frat cells", "experiment": "Gzm B levels in T^frat cells after NAD repletion or SIRT1 activator", "type": "cell-based, mouse", "details": "NAD (1 mM) or SIRT1 activator (1 or 2 μM), 24 h", "description": "(§1) PD1^+CD38^hi and Teff CD8 T cells were generated by our previously reported method^2. In brief, MACS purified (>90%) OT1-CD8 (CD45.1) T cells from mouse spleen were activated either with low-affinity OVA-V peptide or with high-affinity OVA peptide ([…]) in T cell medium supplemented with 30 international units (IU) of IL-2 for 48 hours followed by FACS purification of PD1^+CD38^hi and PD1^+CD38^lo T cells respectively. Various cell surface and intracellular markers as well as level of pro- and anti-inflammatory cytokines, and cytolytic molecules were analyzed by flow cytometry as explained in the next section. In some experiments, CD38 was KD using siRNA for 24 h prior to various marker analysis. Furthermore, in a few experiments, either NAD (1 mM) or SIRT1 activator (1 or 2 μM) were added to the Tfrat cells for 24 h and levels of Gzm B were measured in these cells and in Teff cells by flow cytometry. To determine the role of CD38:CD31 interaction and signaling in Gzm B degranulation, Tfrat cells were cultured with rCD31 (1 or 5 μg) with or without PI3K or ERK1/2 inhibitors (100 nM). After 24 h, degranulation of Gzm B in T^frat cells was measured by CD1071 staining and levels of various signaling molecules by flow cytometry."}, "T^frat cells [2]": {"tested_on": "T^frat cells", "experiment": "Degranulation (CD107a) in T^frat cells cultured with rCD31 with or without PI3K or ERK1/2 inhibitors", "type": "cell-based, mouse", "details": "rCD31 with inhibitor (100 nM), 24 h"}, "[3]": {"tested_on": "target pMel-1 CD8 T cells", "experiment": "Co-culture (in vitro cell killing) of PD1+CD38hi or Teff CD8 T cells with target pMel-1 CD8 T cells; annexin V, caspase3/7, live/dead staining", "type": "cell-based", "details": "co-incubation of T^frat and target cells with blocking antibody or inhibitor", "text": "For the flow cytometry analysis of lymphocytes of mouse and human origin, 1-2×10^6 cells per sample were stained with the LIVE/DEAD fixable near-IR dead cell stain kit (Invitrogen; catalog no. L10119) followed by fixation and permeabilization. All surface and intracellular markers were stained at the same time in fix and per buffer as per manufacturer's recommendations. For IFN-7 and Gzm B staining, the BD Biosciences Cytofix/Cytoperm (catalog no. 51-2090KZ) and BD Biosciences Perm/Wash (catalog no. 51-2091KZ) buffer sets were used according to the manufacturer's instructions. In a few experiments, variously treated cells were processed for annexin V staining to check the extent of apoptosis. For this, collected cells were stained for annexin V in annexin binding buffer (ABB) (BD Biosciences) for 30 minutes at 4° C. […]\nPD1^+CD38^hi and Teff CD8 T cells were co-cultured overnight with FACS-sorted Thy1.1 target pMel-1 CD8^+ T cells (killer to target cell ratio 1:1) that were activated with gp100 peptide (1 μM per 10^6 cells per mL). […] In addition to the annexin V staining, Gzm B levels in the pMel-1 target CD8 or CD4 T cells and […] levels in the Tfrat cells after their co-culture in the presence or absence of anti-CD38/CD31 were measured by flow cytometry. […] Viability of target cells was assessed by FACS analysis using fixable Live/Dead stain."}, "[4]": {"tested_on": "Zap70, PI3K, RAC, and ERK in T^frat cells", "experiment": "Signaling molecules in T^frat cells incubated with rCD31 (Western blotting)", "type": "cell-based, mouse", "details": "incubation with rCD31 (1 or 5 μg)", "description": "as §1, with “After 24 h, degranulation of Gzm B in T^frat cells was measured by CD1071 staining and levels of various signaling molecules by flow cytometry.” left out"}},
  "note": "Residues, ends and D or L forms follow the SMILES beside them. *: point of attachment. Cbz = O=C(OCc1ccccc1)*; CH2Cl = ClC*",
  "data": [
    {"molecule": "Cl.O=C(Nc1ccccc1-c1cn2c(CN3CCNCC3)csc2n1)c1cnc2ccccc2n1", "note": "[SRT1720 HCl]", "values": [
      {"measurement": "expression of Gzm B in T^frat", "setting": "T^frat cells [1]", "result": "decrease in the expression of Gzm B"}
    ]},
    {"molecule": "NC(=O)c1ccc[n+]([C@@H]2O[C@H](COP(=O)([O-])OP(=O)(O)OC[C@H]3O[C@@H](n4cnc5c(N)ncnc54)[C@H](O)[C@@H]3O)[C@@H](O)[C@H]2O)c1", "note": "[NAD]", "values": [
      {"measurement": "expression of Gzm B in T^frat", "setting": "T^frat cells [1]", "result": "decrease in the expression of Gzm B"}
    ]},
    {"molecule": "O=C(Nc1ccc2[nH]nc(-c3ccncc3)c2c1)[C@@H]1CCN(CC(=O)N2CCN(c3ccc(-c4ncccn4)cc3)CC2)C1", "note": "[ERK inhibitor, SCH772984]", "values": [
      {"measurement": "degranulation of Gzm B resulting from CD38:CD31 engagement, measured by CD107a level", "setting": "T^frat cells [2]", "result": "inhibited"}
    ]},
    {"molecule": "C[C@H](NC(=O)OCc1ccccc1)C(=O)N[C@@H](C)C(=O)N[C@@H](CC(=O)O)C(=O)CCl", "note": "[Z-AAD-CMK] (Cbz-Ala-Ala-Asp-CH2Cl)", "values": [
      {"measurement": "T^frat-mediated apoptosis in target pMel-1 CD8 T cells in presence of the agent (annexin V)", "setting": "[3]", "result": "fully abrogated"}
    ]},
    {"molecule": "rCD31: recombinant CD31 protein (3628-PC-050, R&D) (protein) EENSFTINSIHMESLPSWEVMNGQQLTLECLVDISTTSKSRSQHRVLFYKDDAMVYNVTSREHTESYVIPQARVFHSGKYKCTVMLNNKEKTTIEYEVKVHGVSKPKVTLDKKEVTEGGVVTVNCSLQEEKPPIFFKIEKLEVGTKFVKRRIDKTSNENFVLMEFPIEAQDHVLVFRCQAGILSGFKLQESEPIRSEYVTVQESFSTPKFEIKPPGMIIEGDQLHIRCIVQVTHLVQEFTEIIIQKDKAIVATSKQSSEAVYSVMAMVEYSGHYTCKVESNRISKASSIMVNITELFPKPKLEFSSSRLDQGELLDLSCSVSGTPVANFTIQKEETVLSQYQNFSKIAEESDSGEYSCTAGIGKVVKRSGLVPIQVCEMLSKPSIFHDAKSEIIKGHAIGISCQSENGTAPITYHLMKAKSDFQTLEVTSNDPATFTDKPTRDMEYQCRADNCHSHPAVFSEILRVRVIAPVDEVVISILSSNEVQSGSEMVLRCSVKEGTSPITFQFYKEKEDRPFHQAVVNDTQAFWHNKQASKKQEGQYYCTASNRASSMRTSPRSSTLAVRVFLAPWKK", "values": [
      {"measurement": "expression of phosphorylated Zap70, PI3K, RAC, and ERK in T^frat cells", "setting": "[4]", "result": "increase in the expression of phosphorylated Zap70, PI3K, RAC, and ERK"}
    ]}
  ]
}
